Experimental data published in PMC4038399, “Experimental validation of [sequence]^comb virtual ligand screening results for eight proteins yields novel nanomolar and micromolar binders” (Journal of Cheminformatics, 2014).
Values after ≈ are worked out from the molar mass of the structure shown. Like-named read-outs stand apart in the source and are kept apart here.

Legend:
[1] = biological target: E. coli dihydrofolate reductase (DHFR) (Escherichia coli, UniProt P0ABQ4); experiment: biochemical; format: binding; details: Table S3; for Kd: computed from the thermal shifts obtained, read-out: KD (Approx); for Q (quality score): ratio ΔFmelt/ΔFtotal of the melting curve
Chain of E. coli dihydrofolate reductase (DHFR) (P0ABQ4 whole entry): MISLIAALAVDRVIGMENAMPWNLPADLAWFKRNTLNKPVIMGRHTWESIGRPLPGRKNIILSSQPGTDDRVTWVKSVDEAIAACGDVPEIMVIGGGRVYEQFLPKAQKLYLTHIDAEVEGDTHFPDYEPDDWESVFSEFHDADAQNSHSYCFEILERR
Protocol: (§1) High throughput thermal shift assays were carried out following established guidelines (Additional file 1: Table S1). Protein melting curves were obtained from samples aliquoted in 96-well plates using a RealPlex quantitative PCR instrument from Eppendorf (Eppendorf, NY, USA), with Sypro orange dye from Invitrogen as the fluorescent probe. A uniform final concentration of 5 X (supplied as a 5000 X stock solution) was used in all experiments. […] For standardization, different buffers and pH were checked. Thereafter, 100 mM HEPES pH 7.3 and 150 mM NaCl were used in all unfolding experiments. The volume of each reaction was 20 μl, and appropriate dye and protein controls were included. All experiments were done with a minimum of two replicates, with the mean value considered for further analysis. Several drugs/small molecules interact with Sypro orange and lead to aberrant signal enhancements. An additional control to rule out drug-dye interaction was carried out with all the constituents kept constant except for the protein of interest. The protein/protein-drug curves were reported after subtracting the respective dye alone/drug-dye curves.
(§2) Each melting curve was assigned a quality score (Q), the ratio of the melting-associated increase in fluorescence (ΔFmelt) to the total fluorescence range (ΔFtotal). Q = 1 is a high-quality curve, while Q = 0 indicates no thermal transition. Though an arbitrary Q value cutoff was not applied to judge curve quality, the curves were manually curated with Q values reported.
(§3) Subsequent to standardization, (see SI Methods), the validity of the top 1% of […]^comb’s predictions on the test set of eight diverse proteins was examined. To be conservative, we focused only on those protein/ligand pairs showing single sigmoidal thermal transition curves. The fit to Boltzmann’s equation (Eq. 1) was employed to estimate the melting temperature from the observed intensity, I.
(§4) (4) I=Imin+Imax-Imin/1+e^Tm-T/a
(§5) Imin and Imax are the minimum and maximum intensities; a denotes the slope of the curve at the transition midpoint temperate, Tm. To estimate thermodynamic parameters, both van’t Hoff and Gibbs-Helmholtz analyses were done. To estimate the approximate ligand-binding affinity at Tm, Eq. (2) from reference was used with slight modifications; ΔCp is ignored.
(§6) (5) KLTm=exp-ΔH/R1/Tm-1/To/L
(§7) KL(Tm) is the ligand association constant and [L] is the free ligand concentration at Tm ([LTm] ~ [L]total, when [L]total > > the total concentration of protein. KD is the inverse of KL(Tm).
(§8) Thermal unfolding of the eight benchmark proteins was carried out in a 20 μl reaction mix with 100 mM HEPES pH 7.3, 150 mM NaCl, 5 X Sypro orange dye, 10 μM protein and 1 mM of all the predicted ligands.

[2] = biological target: T1, Tryptophanyl tRNA synthetase (TrpRS) (Homo sapiens, UniProt P23381); experiment: Thermal shift (thermal melt) assay, Sypro orange; format: binding, H. sapiens; details: for Q (quality score): ratio ΔFmelt/ΔFtotal
T1 sequence (P23381 1-471): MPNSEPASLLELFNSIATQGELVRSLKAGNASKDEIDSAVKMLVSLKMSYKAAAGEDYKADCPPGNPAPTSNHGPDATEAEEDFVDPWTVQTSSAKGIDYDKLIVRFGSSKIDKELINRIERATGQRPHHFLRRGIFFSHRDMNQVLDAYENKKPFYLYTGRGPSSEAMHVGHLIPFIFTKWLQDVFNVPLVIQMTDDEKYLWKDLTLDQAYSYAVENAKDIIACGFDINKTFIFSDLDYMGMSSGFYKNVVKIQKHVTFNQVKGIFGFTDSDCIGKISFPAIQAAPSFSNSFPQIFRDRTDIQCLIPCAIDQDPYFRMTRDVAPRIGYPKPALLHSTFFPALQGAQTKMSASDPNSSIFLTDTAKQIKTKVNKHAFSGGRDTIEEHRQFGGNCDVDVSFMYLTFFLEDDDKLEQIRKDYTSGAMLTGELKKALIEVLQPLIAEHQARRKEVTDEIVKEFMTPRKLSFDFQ
Protocol: as §1, §2, §3, §4, §5, §6, §7, §8

[3] = biological target: Catalytic subunit of cAMP-dependent protein kinase (cDPK) (Homo sapiens, UniProt P17612); experiment: Thermal shift (thermal melt) assay, Sypro orange; format: binding, H. sapiens; details: for ΔTm: Table S5, 1 mM ligand; for Kd: approximate, computed from the thermal shift, read-out: KD (Approx)
Protocol: (§9) High throughput thermal shift assays were carried out following established guidelines (Additional file 1: Table S1). Protein melting curves were obtained from samples aliquoted in 96-well plates using a RealPlex quantitative PCR instrument from Eppendorf (Eppendorf, NY, USA), with Sypro orange dye from Invitrogen as the fluorescent probe. A uniform final concentration of 5 X (supplied as a 5000 X stock solution) was used in all experiments. The dye was excited at 465 nm and emission recorded at 580 nm using the instrument’s filters. A heating ramp of 1°C/min from 25°C to 74°C was used, and one data point acquired for each degree increment. For standardization, different buffers and pH were checked. Thereafter, 100 mM HEPES pH 7.3 and 150 mM NaCl were used in all unfolding experiments. The volume of each reaction was 20 μl, and appropriate dye and protein controls were included. All experiments were done with a minimum of two replicates, with the mean value considered for further analysis. Several drugs/small molecules interact with Sypro orange and lead to aberrant signal enhancements. An additional control to rule out drug-dye interaction was carried out with all the constituents kept constant except for the protein of interest. The protein/protein-drug curves were reported after subtracting the respective dye alone/drug-dye curves.
as §2, with “reported. […] These were ignored (see Table 1).” for “reported.”
as §3, §4, §5, §6, §7, §8

[4] = biological target: Nucleosome assembly protein 1 (NAP1) (Plasmodium knowlesi, UniProt A0A384KYS3); experiment: Thermal shift (thermal melt) assay, Sypro orange; format: binding, P. knowlesi; details: for Kd: approximate, computed from the thermal shift, read-out: KD (Approx)
Chain of Nucleosome assembly protein 1 (NAP1) (A0A384KYS3 entry or part of it): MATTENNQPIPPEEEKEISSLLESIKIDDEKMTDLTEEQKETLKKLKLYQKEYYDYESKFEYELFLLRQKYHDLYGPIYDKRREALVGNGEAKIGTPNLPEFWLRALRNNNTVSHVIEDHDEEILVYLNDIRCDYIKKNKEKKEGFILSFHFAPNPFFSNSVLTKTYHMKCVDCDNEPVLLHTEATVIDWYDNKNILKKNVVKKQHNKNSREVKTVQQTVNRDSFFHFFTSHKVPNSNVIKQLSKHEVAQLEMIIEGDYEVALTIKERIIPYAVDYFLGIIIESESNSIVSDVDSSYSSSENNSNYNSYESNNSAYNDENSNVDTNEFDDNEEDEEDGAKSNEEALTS
Protocol: as §9
as §2, with “reported. […] These were ignored (see Table 1).” for “reported.”
as §3, §4, §5, §6, §7, §8

[5] = biological target: T2, 1000006: catalytic domain of protein tyrosine phosphatase (2G59) (Homo sapiens, UniProt Q16827); experiment: Thermal shift (thermal melt) assay, Sypro orange; format: binding, H. sapiens; details: Table S6; known binders of 1000001 tested on 1000006; in °C (unit assumed)
T2 construct: the catalytic domain of PTP from H. sapiens (PDB ID: 2G59) (1000006); New York structural genomics consortium (gift)
T2 sequence (Q16827 938-1195 limits assumed): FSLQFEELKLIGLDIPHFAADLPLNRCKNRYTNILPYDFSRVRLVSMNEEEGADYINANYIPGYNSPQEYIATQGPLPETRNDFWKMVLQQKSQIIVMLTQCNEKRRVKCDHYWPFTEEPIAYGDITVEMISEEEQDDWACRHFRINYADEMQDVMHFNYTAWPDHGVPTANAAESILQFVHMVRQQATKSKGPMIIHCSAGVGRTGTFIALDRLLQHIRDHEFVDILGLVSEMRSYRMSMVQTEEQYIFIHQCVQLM
Protocol: as §9
as §2, with “reported. […] These were ignored (see Table 1).” for “reported.”
as §3, §4, §5, §6, §7, §8

[6] = tested on: HCT-116 colon carcinoma cell line; experiment: Cytotoxic assay on cancer cell line; format: cell-based
Protocol: Antimicrobial and anti-cancer tests were performed as in [80].

[7] = biological target: T3, 1000001: Carboxy-terminus phosphatase domain of protein tyrosine phosphatase (2NV5) (Mus musculus, UniProt Q64487); experiment: Thermal shift (thermal melt) assay, Sypro orange; format: binding, M. musculus; design: key to Q (quality score): Q = ΔFmelt/ΔFtotal; 1 = high-quality curve, 0 = no transition; details: for ΔTm: in °C (unit assumed)
T3 construct: The C-terminal phosphatase domain from R. norvegicus (PDB ID: 2NV5) (1000001); New York structural genomics consortium (gift)
T3 sequence (Q64487 1331-1621): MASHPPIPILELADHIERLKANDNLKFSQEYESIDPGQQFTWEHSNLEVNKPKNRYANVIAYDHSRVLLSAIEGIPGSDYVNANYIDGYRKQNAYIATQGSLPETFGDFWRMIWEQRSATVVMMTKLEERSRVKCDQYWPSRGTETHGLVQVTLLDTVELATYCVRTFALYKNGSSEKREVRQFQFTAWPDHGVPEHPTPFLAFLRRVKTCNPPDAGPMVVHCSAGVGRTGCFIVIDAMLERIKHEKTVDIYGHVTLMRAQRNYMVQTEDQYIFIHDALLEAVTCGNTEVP
Protocol: as §9
as §2, with “reported. […] These were ignored (see Table 1).” for “reported.”
as §3, §4, §5, §6, §7, §8

[8] = biological target: Ubiquitin conjugating enzyme (UCE) (Plasmodium falciparum, UniProt Q8I607); experiment: Thermal shift (thermal melt) assay, Sypro orange; format: binding, P. falciparum; details: for Kd: approximate, computed from the thermal shift; for ΔTm: thermal shift, 1 mM ligand, 10 μM protein
Chain of Ubiquitin conjugating enzyme (UCE) (Q8I607 1-147): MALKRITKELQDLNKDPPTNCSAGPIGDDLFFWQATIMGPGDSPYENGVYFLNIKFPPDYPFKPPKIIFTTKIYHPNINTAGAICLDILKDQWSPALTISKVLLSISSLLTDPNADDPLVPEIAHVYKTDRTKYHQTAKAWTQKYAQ
Protocol: as §9
as §2, with “reported. […] These were ignored (see Table 1).” for “reported.”
as §3, §4, §5, §6, §7, §8

[9] = Table S4, TrpRS, computed from the thermal shifts obtained, read-out: KD (Approx)
[10] = Table S4, TrpRS, in °C (unit assumed)
[11] = approximate, computed from the thermal shift, read-out: KD
[12] = inhibitory concentration for 50% growth inhibition

For `Nc1ccc(NC(=O)c2ccc(C(=O)Nc3ccc(N)cc3)cc2)cc1` [NSC 55152], the Kd [1] was ~73.8 µM, the “Q (quality score)” value [1] was 0.2 and the ΔTm ([1]; thermal shift, in °C (unit assumed)) was 5.89. For the same compound, the Kd [2, 9] was ~39.6 µM, the ΔTm [2, 10] was 6.17 and the “Q (quality score)” value ([2]; Table S4, TrpRS) was 0.95. For the same compound, the Kd [2, 11] was 39.6 µM.
For `Nc1ccc(-c2nc3nc(N)nc(N)c3nc2-c2ccc(N)cc2)cc1` [NSC 61642, 6,7-bis(4-aminophenyl) pteridine-2,4-diamine, reference compound], the Kd [1] was ~2.03 µM, the “Q (quality score)” value [1] was 0.6 and the “Q (quality score of melting curve, ΔFmelt/ΔFtotal)” value [3] was 0.4. For the same compound, the ΔTm [3] was 0.71 °C and the Kd [3] was 275 µM.
Work on `Nc1ccn([C@@H]2O[C@H](CO)[C@@H](O)[C@@H]2O)c(=O)n1` [NSC 63878] yielded a Kd [4] of 183 µM.
In the case of `Oc1cccc2nc3ccccc3nc12` [NSC 88882], the ΔTm [5] is reported as 4.39, the “HCT-116 (IC-50)” value ([6]; Table S4) is reported as 4.44 and the “HCT-116 (IC-50)” value [6, 12] is reported as 4.44 µg/mL. For the same compound, the Kd [2, 9] was ~3.83 µM, the ΔTm [2, 10] was 12.07 and the “Q (quality score)” value ([2]; Table S4, TrpRS) was 0.6. For the same compound, the Kd [2, 11] was ~3.8 µM, the Kd ([7]; Table S4, protein 1000001, computed from the thermal shifts obtained, read-out: KD (Approx)) was ~1.47 µM and the ΔTm ([7]; Table S4, protein 1000001) was 9.98. For the same compound, the “Q (quality score)” value ([7]; Table S4, protein 1000001, ratio ΔFmelt/ΔFtotal) was 0.8 and the ΔTm ([7]; Table S6, 1000001, known binders of 1000001) was 9.79.
In the case of `NC(=O)c1cc2c3ccccc3ccn2c1-c1ccccc1` [NSC 93427], the “Q (quality score of melting curve, ΔFmelt/ΔFtotal)” value [8] is reported as 0.05, the Kd ([8]; listed as 93427, read-out: KD (Approx)) is reported as 1.38 µM and the Kd ([8]; listed as NSC93427, read-out: KD (Approx)) is reported as ~1.4 µM. For the same compound, the Kd ([8]; read-out: KD) was 1.38 µM, the ΔTm ([8]; listed as 93427) was 14.86 °C and the ΔTm ([8]; listed as NSC93427) was ~ 15 °C.
With `Cc1cc2nc(CS)[nH]c2cc1C` [NSC 97104] the “Q (quality score of melting curve, ΔFmelt/ΔFtotal)” value [3] was 0.5, the ΔTm [3] was 1.01 °C and the Kd [3] was 200 µM.
For `Cc1nc2c(O)cccc2cc1CO` [NSC 227309], the “Q (quality score of melting curve, ΔFmelt/ΔFtotal)” value [4] was 0.8, the ΔTm ([4]; Table S5, 1 mM ligand) was 0.64 °C and the Kd [4] was 371 µM.
For `CCN(CC)CCNC(=O)c1c(C)[nH]c(/C=C2\C(=O)Nc3ccc(F)cc32)c1C` [NSC 750690, Sunitinib, reference compound], the IC50 ([6]; Homo sapiens, HCT-116, inhibitory concentration for 50% growth inhibition, read-out: HCT-116 (IC-50)) was 1.1 µg/mL (≈ 2.76 µM), the “HCT-116 (IC-50)” value [6, 12] was 1.11 µg/mL and the “Q (quality score)” value ([2]; Table S4, TrpRS) was 1.3. It also gave a ΔTm ([2]; thermal shift, 1 mM ligand, 10 μM protein) of 14.57 °C.
